Laboratory results from US20130190285A1, “METHOD OF TREATING PANCREATIC CANCER” (Niiki Pharma Inc., priority 2009, published 2013).

How the values were obtained:
[1] = system: pancreatic tumor cell line MIA PaCa2; assay: live-cell staining with Calcein AM in 3-dimentional tumor model (HuBiogel); type: cell-based; conditions: MIA PaCa2 3-D tumor beads, Day 3
Experimental: (§1) The compound sodium trans-[tetrachlorobis(1H-indazole)ruthenate(III)] was tested in a 3-dimentional tumor model derived from pancreatic tumor cell line MIA PaCa2. Specifically, cells were trypsinized, washed, counted by trypan blue exclusion. Tumor beads were then prepared by mixing 20,000 cells/10 μl of HuBiogel (4 mg/mL) (See U.S. patent application Ser. No. 10/546,506, which is incorporated herein by reference). The 3-D tumor beads were cultivated for 72 hours in multi-well plates with complete media (10% FBS) in a 37° C. incubator+5% CO2. Mini-tumors were treated with various concentrations of the test compound sodium trans-[tetrachlorobis(1H-indazole)ruthenate(III)] in media (final 0.2-0.3% DMSO) or control (DMSO). Repeated drug treatment was done by removing the culture media and replacing with fresh media with drug compound or DMSO. On Day 3, MTT assay and live-cell staining with Calcein AM were performed (5 beads/assay set).
(§2) Statistical analysis of data sets (Average, T-test, GI-50) was performed using MS-Excel program.

[2] = system: pancreatic tumor cell line MIA PaCa2; assay: MTT assay in 3-dimentional tumor model (HuBiogel); type: cell-based; conditions: MIA PaCa2 3-D tumor beads
Experimental: as §1, §2

HT29 = conditions: colon cancer cell line HT29; cited from earlier work
SW480 = conditions: colon cancer cell line SW480; cited from earlier work
Capan-1 = conditions: Capan-1, 72 hours post-treatment, MTT
Experimental: (§3) To test the activities of sodium trans-[tetrachlorobis(1H-indazole)ruthenate(III)], ATCC's MTT Cell Proliferation Assay® was performed using human pancreatic cancer cell lines PANC-1 and Capan-1. Stock cultures were allowed to grow to 70-80% confluence for this study. The anti-proliferative activity of sodium trans-[tetrachlorobis(1H-indazole)ruthenate(III)], against the indicated cell lines was evaluated in vitro using the ATCC's MTT Cell Proliferation Assay (Catalog No. 30-1010K). PANC-1 cells were grown in DMEM medium with 10% FBS and 1% pen/strep/glutamine. Capan-1 cells were grown using IMDM medium 20% FBS and 1% of pen/strep/glutamine. Panc 1 and Capan-1 cell plates were seeded with 6000 cells/well and 15,000 cells/well, respectively, and treated with sodium trans-[tetrachlorobis(1H-indazole)ruthenate(III)] at 1,000 μM, or a series of 4× dilutions thereof (250 μM, 62.5 μM, etc.). 100 μl of medium was removed from each well at 72 hours post-treatment and MTT reagent was added to each well. The plates were incubated plate at 37° C. for 4 hours and then 100 μl of detergent was added. The plates were left overnight at room temperature in the dark and was read on a plate reader using SoftMax® Pro (version 5.2, Molecular Devices).
(§4) The absorbance data was analyzed as follows: Absorbance values were converted to Percent of Control and plotted against test agent concentrations for IC50 calculations using SoftMax® Pro (version 5.2, Molecular Devices). The plate blank signal average was subtracted from all wells prior to calculating the Percent of Control. Percent of Control values were calculated by dividing the absorbance values for each test well by the No Drug Control average (column 11 values; cells+vehicle control) and multiplying by 100. Plots of Compound Concentration versus Percent of Control were analyzed using the 4-parameter equation to obtain IC50 values and other parameters that describe the sigmoidal dose response curve.
(§5) The IC50 value for the test agents was estimated by curve-fitting the data using the following four parameter-logistic equation: […]

PANC-1 = system: PANC-1
Experimental: as §3, §4, §5

pancreatic cancer = conditions: cited from earlier work
PANC-1 cells = conditions: cited from earlier work

What does the source list for [Cl][Ru-]([Cl])([Cl])[Cl].[Na+].c1ccc2[nH]ncc2c1.c1ccc2[nH]ncc2c1 [sodium trans-[tetrachlorobis(1H-indazole)ruthenate(III)]]?
tumor killing in live-cell staining/image analysis [1]: dose-dependent tumor killing effective; tumor proliferation activity (MTT) ([2]; Day 3, FIG. 1): significantly inhibited tumor proliferation activity; GI50 ([2]; MTT assay on Day 3, read-out: average GI-50 (the drug concentration required for growth inhibition at 50%)): 35.7 µM; killing tumor cells (HT29): effective in killing tumor cells; killing tumor cells (SW480): effective in killing tumor cells; IC50 (Capan-1): 45.2 µM; IC50 (PANC-1; PANC-1, 72 hours post-treatment, MTT): 30.6 µM; activity in cells resistant to gemcitabine and erlotinib (PANC-1; PANC-1 cells): active

Which killing tumor cells (HT29) does the source give for [Cl-].[Cl-].[Cl-].[Cl-].[Ru+3].c1ccc2[nH][nH+]cc2c1.c1ccc2[nH]ncc2c1.c1ccc2[nH]ncc2c1 [Indazolium trans-[tetrachlorobis(1H-indazole)ruthenate(III)], reference compound] here?
Its killing tumor cells is “effective in killing tumor cells”.

What about the killing tumor cells (SW480) of the same molecule?
The killing tumor cells was “effective in killing tumor cells”.

With C#Cc1cccc(Nc2ncnc3cc(OCCOC)c(OCCOC)cc23)c1 [erlotinib] as the molecule, how does the “median overall survival benefit” value (pancreatic cancer; erlotinib in combination with gemcitabine, advanced-stage pancreatic cancer patients) read?
The value was “less than four weeks”.

And the “sensitivity of PANC-1 cells to the drug” value (PANC-1 cells)?
Its value is “resistant”.

What does the source list for Nc1ccn([C@@H]2O[C@H](CO)[C@@H](O)C2(F)F)c(=O)n1 [gemcitabine]?
efficacy in pancreatic cancer (pancreatic cancer; weekly intravenous administration): effective; sensitivity of PANC-1 cells to the drug (PANC-1 cells): resistant
